# Assay results from ChEMBL document CHEMBL5523759, “Discovery of Novel HDAC3 Inhibitors with PD-L1 Downregulating/Degrading and Antitumor Immune Effects” (J Med Chem, 2024).
# Experiments:
# Jurkat = assay: Antiproliferative activity against human Jurkat T cells assessed as reduction in cell viability measured for 48 hrs by CCK-8 assay; format: functional, cell-based
# B16-F10 = assay: Antiproliferative activity against mouse B16-F10 cells assessed as reduction in cell viability measured for 48 hrs by MTT assay; format: functional, cell-based; settings: B16-F10, 48 h
# HepG2 = assay: Antiproliferative activity against human HepG2 cells assessed as reduction in cell viability measured for 48 hrs by MTT assay; format: functional, cell-based; settings: HepG2, 48 h
# Histone deacetylase 1 = Histone deacetylase 1 (Homo sapiens, UniProt Q13547); assay: Inhibition of human recombinant HDAC1 using Ac-Leu-Gly-Lys (Ac)-AMC as substrate preincubated with compound for 10 mins followed by substrate addition and measured after 45 mins by TECAN microtiter plate reader analysis
# Histone deacetylase 3 = Histone deacetylase 3 (Homo sapiens, UniProt O15379); assay: Inhibition of human recombinant HDAC3 using Ac-Leu-Gly-Lys (Ac)-AMC as substrate preincubated with compound for 10 mins followed by substrate addition and measured after 45 mins by TECAN microtiter plate reader analysis
# [1] = target: T1, Protein deacetylase HDAC6 (Homo sapiens, UniProt Q9UBN7); assay: Inhibition of human recombinant HDAC6 using Ac-Leu-Gly-Lys (Ac)-AMC as substrate preincubated with compound for 10 mins followed by substrate addition and measured after 45 mins by TECAN microtiter plate reader analysis
# T1 sequence (Q9UBN7 whole entry): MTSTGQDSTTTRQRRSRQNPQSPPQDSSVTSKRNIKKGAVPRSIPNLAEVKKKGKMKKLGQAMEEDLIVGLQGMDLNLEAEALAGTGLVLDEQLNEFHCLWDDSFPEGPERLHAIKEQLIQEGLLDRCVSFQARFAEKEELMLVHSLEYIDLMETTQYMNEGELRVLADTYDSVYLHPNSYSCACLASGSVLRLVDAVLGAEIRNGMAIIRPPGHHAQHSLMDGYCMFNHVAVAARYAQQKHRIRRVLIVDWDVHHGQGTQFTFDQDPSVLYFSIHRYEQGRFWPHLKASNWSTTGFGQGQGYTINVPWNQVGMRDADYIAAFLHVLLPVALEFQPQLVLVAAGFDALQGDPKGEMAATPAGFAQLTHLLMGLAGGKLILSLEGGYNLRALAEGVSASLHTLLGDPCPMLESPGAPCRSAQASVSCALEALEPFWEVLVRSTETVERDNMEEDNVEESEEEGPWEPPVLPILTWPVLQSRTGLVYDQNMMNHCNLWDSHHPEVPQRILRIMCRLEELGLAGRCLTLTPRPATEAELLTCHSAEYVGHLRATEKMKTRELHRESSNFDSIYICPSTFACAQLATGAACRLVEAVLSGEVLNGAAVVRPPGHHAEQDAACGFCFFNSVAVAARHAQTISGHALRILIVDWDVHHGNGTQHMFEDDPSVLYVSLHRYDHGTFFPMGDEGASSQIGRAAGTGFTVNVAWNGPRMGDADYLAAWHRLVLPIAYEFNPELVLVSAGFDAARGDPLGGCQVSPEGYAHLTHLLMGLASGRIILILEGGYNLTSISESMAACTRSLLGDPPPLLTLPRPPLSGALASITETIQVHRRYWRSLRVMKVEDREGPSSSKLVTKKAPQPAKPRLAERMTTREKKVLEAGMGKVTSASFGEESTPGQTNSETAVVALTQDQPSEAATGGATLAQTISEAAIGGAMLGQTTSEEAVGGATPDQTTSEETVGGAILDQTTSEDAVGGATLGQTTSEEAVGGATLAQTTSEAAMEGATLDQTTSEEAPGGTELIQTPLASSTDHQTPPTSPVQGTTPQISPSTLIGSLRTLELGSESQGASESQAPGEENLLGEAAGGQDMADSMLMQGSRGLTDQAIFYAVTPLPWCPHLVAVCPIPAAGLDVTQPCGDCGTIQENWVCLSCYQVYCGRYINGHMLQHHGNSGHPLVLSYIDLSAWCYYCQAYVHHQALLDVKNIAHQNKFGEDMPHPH
# Histone deacetylase 7 = target: T2, Histone deacetylase 7 (Homo sapiens, UniProt Q8WUI4); assay: Inhibition of human recombinant HDAC7 using Ac-Leu-Gly-Lys (Tfa)-AMC as substrate preincubated with compound for 10 mins followed by substrate addition and measured after 45 mins by TECAN microtiter plate reader analysis
# T2 sequence (Q8WUI4 whole entry): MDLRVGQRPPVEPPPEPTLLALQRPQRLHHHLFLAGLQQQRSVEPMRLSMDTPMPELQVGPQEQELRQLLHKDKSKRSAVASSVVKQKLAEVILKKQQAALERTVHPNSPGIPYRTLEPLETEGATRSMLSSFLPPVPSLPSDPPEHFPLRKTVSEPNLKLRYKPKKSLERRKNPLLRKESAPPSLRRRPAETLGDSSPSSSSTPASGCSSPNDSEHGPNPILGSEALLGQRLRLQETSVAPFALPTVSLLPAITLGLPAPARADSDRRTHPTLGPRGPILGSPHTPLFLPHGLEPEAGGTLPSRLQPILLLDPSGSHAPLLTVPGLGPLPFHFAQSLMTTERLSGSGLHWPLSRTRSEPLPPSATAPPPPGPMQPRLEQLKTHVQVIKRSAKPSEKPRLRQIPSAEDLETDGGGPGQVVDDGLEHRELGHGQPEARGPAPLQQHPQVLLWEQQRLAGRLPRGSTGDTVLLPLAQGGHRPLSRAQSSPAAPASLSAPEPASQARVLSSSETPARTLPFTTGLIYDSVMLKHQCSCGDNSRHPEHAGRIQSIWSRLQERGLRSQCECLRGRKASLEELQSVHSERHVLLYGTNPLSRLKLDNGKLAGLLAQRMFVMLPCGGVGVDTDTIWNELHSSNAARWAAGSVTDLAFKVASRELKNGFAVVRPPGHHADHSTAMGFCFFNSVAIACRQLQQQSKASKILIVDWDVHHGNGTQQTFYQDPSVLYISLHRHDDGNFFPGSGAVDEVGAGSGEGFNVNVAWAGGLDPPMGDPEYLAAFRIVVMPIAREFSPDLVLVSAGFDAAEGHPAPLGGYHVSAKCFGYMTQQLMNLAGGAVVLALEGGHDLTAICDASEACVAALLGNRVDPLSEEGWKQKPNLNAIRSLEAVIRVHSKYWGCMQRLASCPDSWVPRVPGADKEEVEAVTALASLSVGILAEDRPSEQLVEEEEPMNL
# Histone deacetylase 8 = target: T3, Histone deacetylase 8 (Homo sapiens, UniProt Q9BY41); assay: Inhibition of human recombinant HDAC8 using Ac-Leu-Gly-Lys (Tfa)-AMC as substrate preincubated with compound for 10 mins followed by substrate addition and measured after 45 mins by TECAN microtiter plate reader analysis
# T3 sequence (Q9BY41 whole entry): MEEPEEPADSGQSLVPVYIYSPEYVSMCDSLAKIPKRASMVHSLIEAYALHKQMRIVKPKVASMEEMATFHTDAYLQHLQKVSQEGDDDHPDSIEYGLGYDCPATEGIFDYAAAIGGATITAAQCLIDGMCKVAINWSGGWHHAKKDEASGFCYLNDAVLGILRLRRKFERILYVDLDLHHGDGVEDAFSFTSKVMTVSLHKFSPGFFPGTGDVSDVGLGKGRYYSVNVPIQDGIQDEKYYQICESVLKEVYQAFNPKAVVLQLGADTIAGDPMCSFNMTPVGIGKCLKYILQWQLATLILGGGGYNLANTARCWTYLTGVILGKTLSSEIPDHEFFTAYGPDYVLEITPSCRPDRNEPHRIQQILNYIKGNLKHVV
# HCT-116 = assay: cells; settings: Homo sapiens, HCT-116, 48 h
# Description: Antiproliferative activity against human HCT-116 cells assessed as reduction in cell viability measured for 48 hrs by MTT assay
# MCF7 = assay: cells; settings: Homo sapiens, MCF7, 48 h
# Description: Antiproliferative activity against human MCF7 cells assessed as reduction in cell viability measured for 48 hrs by MTT assay
# Sequence of Histone deacetylase 3 (O15379 whole entry): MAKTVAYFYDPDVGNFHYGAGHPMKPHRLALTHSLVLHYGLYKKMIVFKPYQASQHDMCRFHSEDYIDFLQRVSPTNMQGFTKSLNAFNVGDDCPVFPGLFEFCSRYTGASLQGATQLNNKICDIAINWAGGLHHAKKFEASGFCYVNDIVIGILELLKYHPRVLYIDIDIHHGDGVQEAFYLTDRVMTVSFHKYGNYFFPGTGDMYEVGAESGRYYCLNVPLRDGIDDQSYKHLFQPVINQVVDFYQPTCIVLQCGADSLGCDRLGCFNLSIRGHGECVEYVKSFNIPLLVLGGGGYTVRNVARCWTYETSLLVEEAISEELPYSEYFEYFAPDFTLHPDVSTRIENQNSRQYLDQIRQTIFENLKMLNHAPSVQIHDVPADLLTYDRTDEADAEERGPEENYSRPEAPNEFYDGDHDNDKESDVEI
# Sequence of Histone deacetylase 1 (Q13547 whole entry): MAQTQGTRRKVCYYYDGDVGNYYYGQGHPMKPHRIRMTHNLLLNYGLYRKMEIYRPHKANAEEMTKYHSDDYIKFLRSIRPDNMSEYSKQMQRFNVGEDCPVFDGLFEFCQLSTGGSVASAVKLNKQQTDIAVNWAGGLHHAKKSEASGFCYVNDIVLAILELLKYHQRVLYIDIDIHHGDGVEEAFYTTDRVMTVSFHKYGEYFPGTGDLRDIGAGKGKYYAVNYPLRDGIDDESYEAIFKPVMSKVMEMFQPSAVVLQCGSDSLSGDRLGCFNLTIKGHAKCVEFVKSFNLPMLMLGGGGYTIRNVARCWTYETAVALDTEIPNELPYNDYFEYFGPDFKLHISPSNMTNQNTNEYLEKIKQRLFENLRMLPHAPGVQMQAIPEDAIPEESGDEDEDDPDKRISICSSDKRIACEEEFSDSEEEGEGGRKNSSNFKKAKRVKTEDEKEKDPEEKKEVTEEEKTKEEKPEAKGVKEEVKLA
SMILES,IC50 (Jurkat) [nM],also measured
Nc1ccccc1NC(=O)CCCCC(=O)Nc1ccc(-c2ncc(CNc3ccccc3)s2)cc1,670,
Nc1ccccc1NC(=O)CCCCCNC(=O)c1ncc(CNc2ccccc2)s1,1060,
Nc1ccccc1NC(=O)CCCCCCNC(=O)c1ncc(CNc2ccccc2)s1,450,
CCCNNC(=O)CCCCCNC(=O)c1ncc(CNc2ccccc2)s1,> 10000,
Nc1ccccc1NC(=O)CCCCCCC(=O)Nc1ccc(-c2ncc(CNc3ccccc3)s2)cc1,290,
Nc1ccccc1NC(=O)/C=C/c1ccc(CNC(=O)c2ncc(CNc3ccccc3)s2)cc1,390,
Nc1ccccc1NC(=O)CCCNC(=O)c1ncc(CNc2ccccc2)s1,560,
Nc1ccccc1NC(=O)c1ccc(NC(=O)c2ncc(CNc3ccccc3)s2)cc1,2520,
CCCNNC(=O)CNC(=O)c1ncc(CNc2ccccc2)s1,> 10000,
CCCNNC(=O)CCCCCCNC(=O)c1ncc(CNc2ccccc2)s1,1510,
CCCNNC(=O)c1ncc(CNc2ccccc2)s1,> 10000,
CCCNNC(=O)CCCCNC(=O)c1ncc(CNc2ccccc2)s1,1180,
Nc1ccccc1NC(=O)CCCCCC(=O)Nc1ccc(-c2ncc(CNc3ccccc3)s2)cc1,170,IC50 (B16-F10): 7.2 µM; IC50 (HepG2): 1590 nM; IC50 (Histone deacetylase 1): 340 nM; IC50 (Histone deacetylase 3): 150 nM; IC50 [1]: 7.72 µM; IC50 (Histone deacetylase 7): > 10 µM; IC50 (Histone deacetylase 8): > 10 µM; IC50 (HCT-116): 6.58 µM; IC50 (MCF7): 7.88 µM
Nc1ccccc1NC(=O)CCCCNC(=O)c1ncc(CNc2ccccc2)s1,950,
Nc1ccccc1NC(=O)CCC(=O)Nc1ccc(-c2ncc(CNc3ccccc3)s2)cc1,> 10000,
